According to PMC2763079 (Molecular Imaging and Biology, 2009):

Assays:
TSPO [1] = target: T1, TSPO (Rattus norvegicus, UniProt P16257); assay: ex vivo biodistribution after PET scan; format: in vivo; conditions: 60 min after tracer injection
TSPO [2] = target: T1, TSPO; assay: correlation of specific binding in control rats with [^3H]-PK11195 binding; format: in vivo

T1 sequence (P16257 whole entry): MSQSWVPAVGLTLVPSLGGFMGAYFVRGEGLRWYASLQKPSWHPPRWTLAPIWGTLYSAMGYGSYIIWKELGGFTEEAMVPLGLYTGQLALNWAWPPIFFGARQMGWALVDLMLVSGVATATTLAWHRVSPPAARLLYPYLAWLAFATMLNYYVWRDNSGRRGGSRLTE

Question: With CC[C@@H](C)N(C)C(=O)c1cc2ccccc2c(-c2ccccc2Cl)n1 [[^11C]-(R)-PK11195, (R)-N-methyl-N-(1-methylpropyl)-1-(2-chlorophenyl)isoquinoline-3-carboxamide] as the compound, how does the “Ex vivo biodistribution SUV, bulbus olfactorius” value (TSPO [1]; HSE rats) read?
Answer: The value was 1.59 SUV.

Question: What about the “Ex vivo biodistribution SUV, cerebellum” value (TSPO [1]; HSE rats) of the same compound?
Answer: The value was 0.88 SUV.

Question: What about the “Ex vivo biodistribution SUV, medulla” value (TSPO [1]; HSE rats) of the same compound?
Answer: The value was 1.29 SUV.

Question: And the “Ex vivo biodistribution SUV, pons” value (TSPO [1]; HSE rats)?
Answer: Its value is 1.54 SUV.

Question: And the “Ex vivo biodistribution SUV, bulbus olfactorius” value (TSPO [1]; control rats)?
Answer: Its value is 1.20 SUV.

Question: What about the “Ex vivo biodistribution SUV, cerebellum” value (TSPO [1]; control rats) of the same compound?
Answer: The value was 0.51 SUV.

Question: What about the “Ex vivo biodistribution SUV, medulla” value (TSPO [1]; control rats) of the same compound?
Answer: The value was 0.61 SUV.

Question: What about the “Ex vivo biodistribution SUV, pons” value (TSPO [1]; control rats) of the same compound?
Answer: The value was 0.59 SUV.

Question: And the “R, correlation of specific binding in control rats with [^3H]-PK11195 binding” value (TSPO [2]; Pearson correlation, [^3H]-PK11195 binding from Kurumaji et al. [25])?
Answer: The value was 0.96.

Question: And the “slope of the linear regression of specific binding vs [^3H]-PK11195 binding” value (TSPO [2]; control rats)?
Answer: The value was 0.010.
